Patent US12138254B2, “Chronic nightly dosing of lasmiditan for migraine prevention” (Eli Lilly and Company, priority 2018, dated 2024)
“Also recorded” adds a separate entry of the source. Where two headings read alike, the source gives them in different places.

Assays:
[1] = tested on: dural plasma protein extravasation; experiment: Trigeminal stimulation-induced dural plasma protein extravasation (PPE) in rats; assay type: in vivo, Sprague-Dawley rats
Text: Migraine is a painful condition thought to involve neurogenic inflammation of the dural membrane and activation of the trigeminal nervous system. The 5-HT1F receptor is widely expressed in the CNS and peripheral nerves, including the trigeminal ganglia, dorsal root ganglia and trigeminal nucleus caudalis. Plasma protein extravasation (PPE), one component of neurogenic inflammation, can be induced in the dura of rats by electrically stimulating the trigeminal ganglion. Considering the role of the trigeminal nerve in the physiology of migraine, this study is useful to characterize the ability of lasmiditan-hemisuccinate to block plasma protein extravasation in the dura of rats following electrical stimulation of the trigeminal ganglion.
To investigate the potential of lasmiditan to modify the dysfunction in the target tissue, the duration of effect following a single oral dose of lasmiditan-hemisuccinate was also determined. Electrical stimulation of the trigeminal ganglion of rats and guinea pigs can be used to induce neurogenic inflammation in the meninges (dura). Briefly, unilateral electrical stimulation of either the left or right trigeminal ganglion using electrodes implanted stereotaxically is used to induce ipsilateral neurogenic inflammation and the increased extravasation of plasma proteins.
Lasmiditan-hemisuccinate is dissolved in sterile water. All doses of lasmiditan are reported as free base equivalent doses, accounting for the weight of the salt. Envigo Sprague-Dawley, Sprague-Dawley male rats (250-350 grams, n=4/group) are fasted overnight prior to dosing. The animals are orally gavaged (2 mL/kg dose volume) with test compound or vehicle one hour prior to stimulation time and returned to their cages with only water available. Approximately 50 minutes post-dosing, the rats are anesthetized with Nembutal (65 mg/kg, ip.) and implanted with stainless steel stimulating electrodes (Rhodes Medical Systems, Inc.) to a depth of 9.2 mm. from the dura. The femoral vein is exposed and fluorescein isothiocyanate-labeled bovine serum albumin (FITC-BSA) (20 mg/kg, iv.), is injected into the femoral vein 2 minutes prior to stimulation. The FITC-BSA functions as a marker for protein extravasation. The left trigeminal ganglion is stimulated for 5 minutes at a current intensity of 1.0 mA (5 Hz, 5 msec pulse duration) with a Model S48 Grass Instrument Stimulator with PSIU6 photoelectric isolation unit (Grass-Telefactor). Five minutes following stimulation, a blood sample is collected by cardiac puncture and the rats are sacrificed by exsanguination with 40 ml of saline. One milliliter of blood is collected and placed in a 1.5 ml EDTA coated tube (Fisher Cat. #540734) on ice. Plasma is separated via centrifugation at 10,000 rpm (941 g) for thirty minutes at 4° C. The top of the skull is removed to collect the brain and dural membranes. The brain and plasma samples are frozen at −80° C. until thawed for compound quantification. The membrane samples are removed from both hemispheres, rinsed with water, and spread flat on microscope slides. The slides are dried for 15 minutes on a slide warmer, then the tissues are cover-slipped with a 70% glycerol/water solution. A fluorescence microscope (Zeiss) equipped with a grating monochromator and a spectrophotometer is used to quantify the amount of FITC-BSA dye in each dural sample. The extravasation induced by electrical stimulation of the trigeminal ganglion is an ipsilateral effect (i.e. occurs only on the side of the dura in which the trigeminal ganglion was stimulated). This allows the other (unstimulated) half of the dura to be used as the control. The ratio of extravasation in the dura from the stimulated side versus the unstimulated side is calculated and reported as the extravasation ratio for each animal. The mean extravasation ratio and standard error of the mean (SEM) are calculated for each treatment group. Controls yield a ratio of approximately 1.8. […]

patients with migraine [2] = experiment: Phase 3 studies SAMURAI and SPARTAN, lasmiditan vs placebo for acute treatment of migraine; assay type: in vivo, human
Text: Prior clinical development studies of lasmiditan have employed acute on-demand treatment regimens to relieve migraine pain and symptoms and treat migraine. […] From this analysis, the authors concluded the primary and key secondary endpoints were met and safety outcomes were consistent across the two Phase 3 studies. Thus, acute on-demand use of lasmiditan provides effective treatment for a substantial population of migraine patients, however some patients may continue to have attacks and improved methods of treating and/or preventing these attacks represent an important therapeutic goal.
The placebo-controlled Phase 3 studies SAMURAI (NCT02439320) and SPARTAN (NCT02605174) evaluated lasmiditan 50 mg [SPARTAN only], 100 mg and 200 mg. […] GLADIATOR (NCT02565186) is a prospective randomized open-label Phase 3 study to evaluate long-term intermittent use of lasmiditan (100 mg or 200 mg) for acute treatment of migraine. An interim analysis of the effects of lasmiditan on migraine disability assessed with the MIDAS scale in GLADIATOR is described below, and has provided surprising and unexpected evidence of persistent beneficial effects in migraine patients.

patients with migraine [3] = details: cited from earlier work; for pain freedom (primary) and MBS freedom (key secondary) at 2 hours vs placebo: Phase 3 trials, all doses (50, 100, 200 mg); for proportion of patients headache pain-free / proportion of patients most bothersome symptom (MBS)-free: lasmiditan 200 mg, 2 hours post-first dose, p<0.001
[4] = tested on: simulated driving performance; experiment: Computer-based driving simulator study in healthy volunteers

## CN1CCC(C(=O)c2cccc(NC(=O)c3c(F)cc(F)cc3F)n2)CC1 [Lasmiditan, 2,4,6-trifluoro-N-[6-(1-methyl-piperidin-4-ylcarbonyl)-pyridin-2-yl]-benzamide]
[1]; 0.1 mg/kg po, 1 hour post-dose
  inhibition of dural plasma protein extravasation vs vehicle: non-efficacious
[1]; single 10 mg/kg po, 24 hours post-dose
  inhibition of dural plasma protein extravasation vs vehicle: equally efficacious
[1]; single 10 mg/kg po, 48 hours post-dose
  inhibition of dural plasma protein extravasation vs vehicle: not at 48 hours
Patients with migraine [2]; 50-mg to 200-mg dose range, 2-hour to 24-hour time frame after dosing
  recurrence rates of migraine: similarly low
Patients with migraine [2]; completed single-attack Phase 3 studies
  efficacy on 2-hour pain freedom, dose relation: dose related
Patients with migraine [2]; studies of lasmiditan for acute treatment of migraine
  TEAEs, 200 mg vs 100 mg: numerically more TEAEs
Patients with migraine [3]; Phase 3 studies, b6: ≥2% and greater than placebo after the first dose
  most frequently reported / most common TEAEs: dizziness, paresthesia, somnolence, fatigue, and nausea
Patients with migraine [3]; Phase 3 studies
  severity of TEAEs: mild or moderate
Patients with migraine [3]
  pain freedom (primary) and MBS freedom (key secondary) at 2 hours vs placebo: statistically significant superiority over placebo
Patients with migraine [3]; listed as lasmiditan
  pain freedom (primary) and MBS freedom (key secondary) at 2 hours vs placebo: significantly higher rates
Patients with migraine [3]; SAMURAI, placebo 15.3%
  proportion of patients headache pain-free: 32.2%
Patients with migraine [3]; SAMURAI, placebo 29.5%
  proportion of patients most bothersome symptom (MBS)-free: 40.7%
Patients with migraine [3]; SPARTAN, placebo 21.3%
  proportion of patients headache pain-free: 38.8%
Patients with migraine [3]; SPARTAN, placebo 33.5%
  proportion of patients most bothersome symptom (MBS)-free: 48.7%
Patients with migraine [3]; lasmiditan 100 mg, 50 mg dose groups
  headache pain-free and MBS-free at 2 hours compared to placebo: significance was also noted
[4]; after dosing
  time by which impaired simulated driving performance resolved: ≤ 8 h
[4]; all doses, acute treatment
  driving impairment / simulated driving performance: impair simulated driving performance in a dose-dependent manner; also recorded: associated with driving impairment
